Test results taken from ChEMBL document CHEMBL1201862, “PubChem BioAssay data set” (2004).
Calls of active or inactive are those of the source.

What was measured:
[1] = target: T1, Kappa-type opioid receptor (Homo sapiens, UniProt P41145); experiment: SAR analysis of Antagonists of the Kappa Opioid Receptor (KOR) using an Image-Based Assay - Set 3. [Related pubchem assays (depositor defined):AID1777, AID1785]; type: functional
[2] = target: T1, Kappa-type opioid receptor; experiment: SAR analysis of Antagonists of the Kappa Opioid Receptor (KOR) using an Image-Based Assay - Set 4. [Related pubchem assays (depositor defined):AID1777, AID1785]; type: functional
[3] = target: Delta-type opioid receptor (Homo sapiens, UniProt P41143); experiment: SAR Analysis of Antagonists of the DOR Receptor using an Image-Based Assay - Set 3. [Related pubchem assays (depositor defined):AID1777, AID1785]; type: functional;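 note: U2OS cells expressing DOR1 and beta-arrestin GFP stimulated with 100 nM SNC80; imaging of GFP-tagged beta-arrestin moving into spots after receptor activation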
Mu-type opioid receptor = Mu-type opioid receptor (Homo sapiens, UniProt P35372); experiment: SAR Analysis of Antagonists of the MOR Receptor using an Image-Based Assay - Set 3. [Related pubchem assays (depositor defined):AID1777, AID1785, AID1786, AID1966, AID2133, AID2136, AID2284, AID2285, AID2420]; type: functional
[4] = target: T1, Kappa-type opioid receptor; experiment: SAR analysis of small molecule antagonists of the kappa opioid receptor via a luminescent beta-arrestin assay - Set 3. [Related pubchem assays (depositor defined):AID1777, AID1778, AID1785, AID1786, AID1966, AID2133, AID2136, AID2285, AID2495]; type: functional
Nonstructural protein 1 = Nonstructural protein 1 (Influenza A virus, UniProt Q194T2); type: functional, Influenza A virus (A/California/07/2009(H1N1))
[5] = target: T2, Trace amine-associated receptor 1 (Homo sapiens, UniProt Q96RJ0); experiment: Counterscreen for agonists of the human trace amine associated receptor 1 (hTAAR1): Fluorescence-based cell-based high throughput dose response assay to identify hTAAR1 agonist that also desensitize TAAR1 receptor response.; type: functional
T2 sequence (Q96RJ0 whole entry): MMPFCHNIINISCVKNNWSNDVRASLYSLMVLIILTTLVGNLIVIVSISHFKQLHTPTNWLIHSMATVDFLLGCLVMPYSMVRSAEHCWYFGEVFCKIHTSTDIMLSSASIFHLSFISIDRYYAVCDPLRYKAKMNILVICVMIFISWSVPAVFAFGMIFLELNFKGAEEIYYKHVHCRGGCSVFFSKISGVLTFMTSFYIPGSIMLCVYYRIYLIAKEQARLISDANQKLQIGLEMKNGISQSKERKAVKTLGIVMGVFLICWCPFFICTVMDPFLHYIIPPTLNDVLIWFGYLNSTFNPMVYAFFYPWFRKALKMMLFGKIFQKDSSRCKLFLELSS

[6] = THP-1 cell cytotoxicity, dose response, cytotoxicity control for non-replicating M. tuberculosis project (AID 489025); type: functional
cells [7] = type: functional, cell-based
[8] = Vero E6 cell cytotoxicity, dose response, cytotoxicity control for non-replicating M. tuberculosis project, secondary assay (AID 492998); type: functional, VeroE6; details: Vero C1008
cells [9] = type: functional, cell-based; remark: listed apart in the source
[10] = target: T3, Ubiquitin-conjugating enzyme E2 N (Homo sapiens, UniProt P61088); type: functional;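 note: Dose-response confirmation in a TR-FRET assay detecting UBC13-driven polyubiquitin chain formation, inhibition measured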
T3 sequence (P61088 whole entry): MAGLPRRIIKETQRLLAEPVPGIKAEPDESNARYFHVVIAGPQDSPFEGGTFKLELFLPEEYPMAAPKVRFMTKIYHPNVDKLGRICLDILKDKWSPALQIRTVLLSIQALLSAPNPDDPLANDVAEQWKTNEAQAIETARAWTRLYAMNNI

[11] = target: DNA damage-inducible transcript 3 protein (Mus musculus, UniProt P35639); type: functional, Cricetulus griseus
[12] = target: T2, Trace amine-associated receptor 1; experiment: Fluorescence-based cell-based high throughput dose response assay to identify agonists of the human trace amine associated receptor 1 (TAAR1).; type: functional
cells [13] = type: functional
[14] = target: T4, DNA repair protein RAD52 homolog (Homo sapiens, UniProt P43351); type: functional, biochemical
T4 sequence (P43351 whole entry): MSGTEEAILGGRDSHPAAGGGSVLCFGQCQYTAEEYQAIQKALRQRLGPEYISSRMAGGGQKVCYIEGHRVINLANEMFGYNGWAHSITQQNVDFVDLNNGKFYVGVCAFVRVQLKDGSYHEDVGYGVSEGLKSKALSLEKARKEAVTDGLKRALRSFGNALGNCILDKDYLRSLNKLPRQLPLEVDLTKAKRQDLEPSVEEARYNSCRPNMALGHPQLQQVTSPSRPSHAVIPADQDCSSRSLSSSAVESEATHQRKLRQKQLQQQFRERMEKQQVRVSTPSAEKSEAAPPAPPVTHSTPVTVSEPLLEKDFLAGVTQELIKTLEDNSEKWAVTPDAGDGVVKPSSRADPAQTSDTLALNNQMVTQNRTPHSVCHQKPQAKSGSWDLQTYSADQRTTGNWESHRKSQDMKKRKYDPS

[15] = target: Intestinal-type alkaline phosphatase (Mus musculus, UniProt P24822); experiment: PubChem AID 488874; type: functional
[16] = target: Heat shock protein HSP 90-alpha (Homo sapiens, UniProt P07900); type: functional, organism-based
[17] = Counterscreen for AddAB inhibitors: absorbance-based bacterial cell-based high throughput dose response assay for inhibitors of bacterial viability. [Related pubchem assays (depositor defined):AID435030, AID449728, AID449731, AID488942, AID488955, AID488956]; type: functional
[18] = target: T5, Endoribonuclease toxin MazF (Escherichia coli K-12, UniProt P0AE70); experiment: substrate-only fluorescence increase artefacts – biochemical, single-stranded RNase substrate, counter-screen for MazEF activator project, dose response (AID 588502); type: functional
T5 sequence (P0AE70 whole entry): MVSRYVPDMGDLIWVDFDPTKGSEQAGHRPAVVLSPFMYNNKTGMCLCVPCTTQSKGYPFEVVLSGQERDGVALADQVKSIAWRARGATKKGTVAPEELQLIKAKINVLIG

[19] = target: T5, Endoribonuclease toxin MazF; experiment: activation of MazEF endoribonuclease cleavage – biochemical, fluorescence, single-stranded RNA substrate, uHTS hits, dose response (AID 588481); type: functional
Exodeoxyribonuclease V = target: T6, Exodeoxyribonuclease V (Escherichia coli (strain K12), UniProt P04993+P07648+P08394); experiment: RecBCD inhibition via phage-restricted bacterial growth – absorbance, V66 E. coli, mutant T4 phage, counter-screen for AddAB inhibitor project, dose response (AID 492957); type: functional, cell-based, Escherichia coli str. K-12 substr. MG1655
T6 sequence (P04993 whole entry): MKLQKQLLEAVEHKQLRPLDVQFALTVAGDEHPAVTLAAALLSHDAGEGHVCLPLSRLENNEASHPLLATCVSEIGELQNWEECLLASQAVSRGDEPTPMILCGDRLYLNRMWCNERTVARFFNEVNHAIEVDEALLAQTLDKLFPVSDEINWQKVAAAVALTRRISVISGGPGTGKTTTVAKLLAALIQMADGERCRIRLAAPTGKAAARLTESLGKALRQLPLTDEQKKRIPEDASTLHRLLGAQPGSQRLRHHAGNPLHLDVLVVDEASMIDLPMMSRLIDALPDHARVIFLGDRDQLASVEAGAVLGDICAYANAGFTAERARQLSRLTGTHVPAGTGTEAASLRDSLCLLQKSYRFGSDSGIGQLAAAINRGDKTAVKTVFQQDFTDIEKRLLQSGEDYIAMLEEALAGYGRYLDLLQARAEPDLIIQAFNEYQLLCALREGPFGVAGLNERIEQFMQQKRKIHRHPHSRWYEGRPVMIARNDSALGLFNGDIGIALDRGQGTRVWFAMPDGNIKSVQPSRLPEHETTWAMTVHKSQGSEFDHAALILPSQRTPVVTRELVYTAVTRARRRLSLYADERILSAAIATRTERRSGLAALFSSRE
T6 sequence (P07648 whole entry): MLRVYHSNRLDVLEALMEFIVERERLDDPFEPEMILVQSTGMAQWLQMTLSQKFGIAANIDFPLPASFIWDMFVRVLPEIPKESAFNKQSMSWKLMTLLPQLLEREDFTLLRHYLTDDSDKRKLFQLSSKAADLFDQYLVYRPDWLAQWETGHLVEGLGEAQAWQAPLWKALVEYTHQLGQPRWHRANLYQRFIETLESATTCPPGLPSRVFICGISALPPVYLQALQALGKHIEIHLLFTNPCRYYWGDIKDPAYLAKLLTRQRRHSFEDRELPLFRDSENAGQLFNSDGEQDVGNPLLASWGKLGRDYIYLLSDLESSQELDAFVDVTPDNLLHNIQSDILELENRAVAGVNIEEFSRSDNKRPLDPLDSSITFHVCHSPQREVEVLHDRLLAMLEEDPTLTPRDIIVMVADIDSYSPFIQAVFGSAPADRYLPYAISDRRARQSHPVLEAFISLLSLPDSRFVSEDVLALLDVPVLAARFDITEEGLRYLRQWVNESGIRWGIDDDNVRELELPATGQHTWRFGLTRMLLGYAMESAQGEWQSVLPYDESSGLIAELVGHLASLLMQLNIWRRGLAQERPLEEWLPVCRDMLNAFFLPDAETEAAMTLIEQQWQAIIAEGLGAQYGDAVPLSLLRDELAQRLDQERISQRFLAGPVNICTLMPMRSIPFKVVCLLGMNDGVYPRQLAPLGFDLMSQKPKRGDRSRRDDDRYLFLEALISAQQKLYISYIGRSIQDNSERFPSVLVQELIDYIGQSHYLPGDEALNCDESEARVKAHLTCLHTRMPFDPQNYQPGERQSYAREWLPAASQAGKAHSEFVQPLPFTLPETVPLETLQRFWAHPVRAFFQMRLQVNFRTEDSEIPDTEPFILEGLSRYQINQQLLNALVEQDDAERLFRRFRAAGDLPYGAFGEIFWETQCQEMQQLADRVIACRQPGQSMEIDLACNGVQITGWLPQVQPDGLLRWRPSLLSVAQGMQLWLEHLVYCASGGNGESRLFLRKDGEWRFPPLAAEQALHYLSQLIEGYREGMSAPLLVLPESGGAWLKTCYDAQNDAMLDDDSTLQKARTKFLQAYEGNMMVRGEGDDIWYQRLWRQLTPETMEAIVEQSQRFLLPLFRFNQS
T6 sequence (P08394 whole entry): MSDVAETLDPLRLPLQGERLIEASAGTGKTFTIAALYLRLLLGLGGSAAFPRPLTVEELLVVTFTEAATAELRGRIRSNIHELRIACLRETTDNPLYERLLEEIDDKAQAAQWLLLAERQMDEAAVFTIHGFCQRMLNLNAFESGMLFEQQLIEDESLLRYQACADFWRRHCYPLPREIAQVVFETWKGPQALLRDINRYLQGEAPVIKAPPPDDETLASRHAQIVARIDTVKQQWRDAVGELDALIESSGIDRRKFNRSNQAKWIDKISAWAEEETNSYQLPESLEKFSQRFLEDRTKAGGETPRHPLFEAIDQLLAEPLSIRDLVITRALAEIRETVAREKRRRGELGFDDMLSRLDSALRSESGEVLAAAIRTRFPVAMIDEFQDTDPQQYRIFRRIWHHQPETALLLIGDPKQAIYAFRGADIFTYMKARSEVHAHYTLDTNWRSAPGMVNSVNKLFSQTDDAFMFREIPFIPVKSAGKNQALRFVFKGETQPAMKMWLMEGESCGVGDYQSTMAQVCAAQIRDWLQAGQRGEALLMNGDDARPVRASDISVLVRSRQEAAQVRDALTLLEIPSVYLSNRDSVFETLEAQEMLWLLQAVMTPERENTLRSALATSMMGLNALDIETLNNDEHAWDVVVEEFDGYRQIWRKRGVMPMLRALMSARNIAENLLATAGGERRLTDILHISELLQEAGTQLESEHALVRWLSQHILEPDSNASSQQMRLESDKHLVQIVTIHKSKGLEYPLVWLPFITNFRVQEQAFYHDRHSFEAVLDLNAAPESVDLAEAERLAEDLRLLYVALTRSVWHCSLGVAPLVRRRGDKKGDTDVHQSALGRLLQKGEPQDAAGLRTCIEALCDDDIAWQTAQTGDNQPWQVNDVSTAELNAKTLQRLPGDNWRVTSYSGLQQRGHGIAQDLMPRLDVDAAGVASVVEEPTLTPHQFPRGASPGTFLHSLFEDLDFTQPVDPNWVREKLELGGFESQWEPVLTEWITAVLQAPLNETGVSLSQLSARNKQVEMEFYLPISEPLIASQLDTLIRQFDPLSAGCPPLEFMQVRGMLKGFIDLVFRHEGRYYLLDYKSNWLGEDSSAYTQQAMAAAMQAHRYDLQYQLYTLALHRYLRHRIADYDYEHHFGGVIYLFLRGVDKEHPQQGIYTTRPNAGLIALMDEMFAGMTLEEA

[20] = target: T7, Intestinal-type alkaline phosphatase (Homo sapiens, UniProt P09923); experiment: human intestinal alkaline phosphatase activators, dose response, biochemical, luminescence, uHTS hits (AID 463120); type: functional
[21] = microbe, parasite or virus in culture; type: functional; details: Mycobacterium tuberculosis
[22] = target: T7, Intestinal-type alkaline phosphatase; experiment: activation of human intestinal alkaline phosphatase – biochemical, luminescent, uHTS hits, set 2, dose response (AID 488817); type: functional;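 note: potency of activators that raise enzyme activity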

T1 sequence (P41145 whole entry): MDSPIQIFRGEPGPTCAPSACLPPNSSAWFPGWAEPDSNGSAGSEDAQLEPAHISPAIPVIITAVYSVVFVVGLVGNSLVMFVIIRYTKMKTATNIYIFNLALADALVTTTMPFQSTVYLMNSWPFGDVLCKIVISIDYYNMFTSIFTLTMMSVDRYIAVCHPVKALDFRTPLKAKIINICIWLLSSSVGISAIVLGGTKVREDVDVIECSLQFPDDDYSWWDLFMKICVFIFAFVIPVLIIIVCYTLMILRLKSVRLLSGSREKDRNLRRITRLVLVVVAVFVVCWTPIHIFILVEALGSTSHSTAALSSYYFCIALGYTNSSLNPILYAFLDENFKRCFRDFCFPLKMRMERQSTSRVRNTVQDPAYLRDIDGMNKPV
T7 sequence (P09923 whole entry): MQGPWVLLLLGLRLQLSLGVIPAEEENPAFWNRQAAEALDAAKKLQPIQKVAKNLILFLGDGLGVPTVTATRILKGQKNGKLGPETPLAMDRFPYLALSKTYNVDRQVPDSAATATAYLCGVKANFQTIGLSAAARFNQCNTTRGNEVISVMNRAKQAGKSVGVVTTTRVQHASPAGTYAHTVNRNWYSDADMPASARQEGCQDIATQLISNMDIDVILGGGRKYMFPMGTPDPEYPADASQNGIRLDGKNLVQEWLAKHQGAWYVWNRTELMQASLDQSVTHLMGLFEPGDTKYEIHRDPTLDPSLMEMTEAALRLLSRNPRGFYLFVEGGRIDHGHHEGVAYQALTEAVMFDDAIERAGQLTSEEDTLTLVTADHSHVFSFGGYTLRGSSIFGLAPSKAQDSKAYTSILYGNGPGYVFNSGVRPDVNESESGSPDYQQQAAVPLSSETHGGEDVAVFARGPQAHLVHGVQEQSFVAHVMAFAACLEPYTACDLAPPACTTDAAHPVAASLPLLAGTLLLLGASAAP
Delta-type opioid receptor, sequence (P41143 whole entry): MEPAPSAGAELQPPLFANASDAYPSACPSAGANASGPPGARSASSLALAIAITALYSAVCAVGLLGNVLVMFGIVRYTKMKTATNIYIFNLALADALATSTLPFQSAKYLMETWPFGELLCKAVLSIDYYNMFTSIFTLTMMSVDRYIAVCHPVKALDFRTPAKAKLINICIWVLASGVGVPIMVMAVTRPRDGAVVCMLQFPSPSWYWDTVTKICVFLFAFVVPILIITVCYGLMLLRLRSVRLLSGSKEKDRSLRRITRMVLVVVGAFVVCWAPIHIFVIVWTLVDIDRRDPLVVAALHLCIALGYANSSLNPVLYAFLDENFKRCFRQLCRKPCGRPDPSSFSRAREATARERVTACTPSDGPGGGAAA
DNA damage-inducible transcript 3 protein, sequence (P35639 whole entry): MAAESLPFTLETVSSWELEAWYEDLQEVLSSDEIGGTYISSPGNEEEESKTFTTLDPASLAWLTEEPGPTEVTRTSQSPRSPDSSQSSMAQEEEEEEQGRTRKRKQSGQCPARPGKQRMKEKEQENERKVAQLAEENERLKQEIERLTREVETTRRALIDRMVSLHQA
Mu-type opioid receptor, sequence (P35372 whole entry): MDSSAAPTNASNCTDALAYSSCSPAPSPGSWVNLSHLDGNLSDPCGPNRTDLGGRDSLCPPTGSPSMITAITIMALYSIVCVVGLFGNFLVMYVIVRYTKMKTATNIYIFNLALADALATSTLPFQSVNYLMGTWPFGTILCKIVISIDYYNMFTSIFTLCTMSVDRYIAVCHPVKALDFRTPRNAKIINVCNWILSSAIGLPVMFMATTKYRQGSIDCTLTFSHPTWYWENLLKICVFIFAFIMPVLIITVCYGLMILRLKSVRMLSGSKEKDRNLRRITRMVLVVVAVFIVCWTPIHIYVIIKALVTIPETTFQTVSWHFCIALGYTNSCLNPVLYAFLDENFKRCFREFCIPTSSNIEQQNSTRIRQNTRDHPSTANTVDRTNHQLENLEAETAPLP
Nonstructural protein 1, sequence (Q194T2 whole entry): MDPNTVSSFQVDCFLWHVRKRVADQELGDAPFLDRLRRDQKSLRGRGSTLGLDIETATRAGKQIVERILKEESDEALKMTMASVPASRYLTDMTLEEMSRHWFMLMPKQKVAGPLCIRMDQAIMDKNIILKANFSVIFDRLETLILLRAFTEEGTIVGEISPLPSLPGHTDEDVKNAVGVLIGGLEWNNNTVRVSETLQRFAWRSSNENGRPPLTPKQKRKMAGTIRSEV
Intestinal-type alkaline phosphatase (Mus musculus, UniProt P24822), sequence (P24822 whole entry): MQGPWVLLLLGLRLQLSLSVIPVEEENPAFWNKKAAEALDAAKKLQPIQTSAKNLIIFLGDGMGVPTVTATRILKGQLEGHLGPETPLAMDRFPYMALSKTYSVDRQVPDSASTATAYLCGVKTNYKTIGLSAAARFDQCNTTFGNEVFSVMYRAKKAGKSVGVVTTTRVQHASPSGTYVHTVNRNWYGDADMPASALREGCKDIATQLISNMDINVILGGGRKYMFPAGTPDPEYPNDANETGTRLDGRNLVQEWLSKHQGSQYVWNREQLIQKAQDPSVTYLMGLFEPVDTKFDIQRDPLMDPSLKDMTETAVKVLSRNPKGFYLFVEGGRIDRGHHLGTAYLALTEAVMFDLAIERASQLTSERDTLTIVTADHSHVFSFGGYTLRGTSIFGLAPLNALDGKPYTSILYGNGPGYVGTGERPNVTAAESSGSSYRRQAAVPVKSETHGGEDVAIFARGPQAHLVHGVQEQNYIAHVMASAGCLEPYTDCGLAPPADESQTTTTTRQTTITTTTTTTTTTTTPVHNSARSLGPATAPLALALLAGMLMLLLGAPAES

Cc1ccc(N2CCN(CCCNC(=O)Cn3c(=O)c4cccn4c4cccnc43)CC2)cc1
IC50 [1]: 776 nM (active)
IC50 [2]: 1.01 µM (active)
IC50 [3]: > 32 µM (inactive)
IC50 (Mu-type opioid receptor): 18.8 µM (inactive)
IC50 [4]: 3.68 µM (active)

N=C(N)N/N=C/c1cn(-c2ccccc2)nc1-c1cccs1.O=[N+]([O-])O
IC50 (Nonstructural protein 1): > 100 µM (active)
IC50 [5]: 17.7 µM (inactive)
CC50 [6]: 12.3 µM (active)
EC50 (cells [7]): 11.4 µM (inactive)
CC50 [8]: 11 µM (active)
IC50 (cells [9]): 12.2 µM (inactive)
IC50 [10]: > 20 µM (inactive)
Absolute IC50 (CHOP) [11]: 10 µM
EC50 [12]: 6.9 µM (active)
IC50 (cells [13]): 11 µM (active)
AC50 [14]: 3.85 µM (active)

C=CCN1C(=O)/C(=N/Nc2ccccc2O)c2ccccc21
IC50 [15]: 9.81 µM (active)
AC50 [16]: 10.9 µM (active)
IC50 [17]: 42.8 µM (inactive)
EC50 [18]: 46.3 µM (inactive)
EC50 [19]: > 99 µM (inactive)
IC50 (Exodeoxyribonuclease V): > 118 µM (inactive)
EC50 [20]: 8.62 µM (active)
CC50 [21]: 38.1 µM (active)
EC50 [22]: 378 nM (active)
